# Experimental data taken from patent publication US10603319B2, “Pyrimidine derivatives and their use in treating or preventing a respiratory syncytial virus infection” (REVIRAL LIMITED, priority 2016, dated 2020).
# Tests used:
# RSV A2_F = target: T1, RSV A2_F (Human respiratory syncytial virus A, UniProt P03420); assay: RSV fusion assay (luciferase reporter, HEK 293T/17 cells transfected with A2_F); assay type: cell-based; details: Fusion activity IC50 μM, HEK 293T/17 cells, 24 hr
# T1 construct: expressed in transfected cells; host or cells: HEK 293T/17
# [1] = Liver microsomal stability, human; assay type: in vitro ADME; details: both sexes, pooled liver microsomes, pH 7.4, 0.5 mg/mL protein, read-out: Liver Microsomal Stability (T1/2/mins) human
# Description: (§1) Microsomal Incubation: Experimental Procedure
# (§2) Pooled human liver microsomes (pooled male and female), pooled rat liver microsomes (male Sprague Dawley rats) and pooled dog liver microsomes (male Beagle dog) are purchased from a reputable commercial supplier and stored at −80° C. prior to use.
# (§3) Microsomes (final protein concentration 0.5 mg/mL), 0.1 M phosphate buffer pH 7.4 and test compound (final substrate concentration 3 μM; final DMSO concentration 0.25%) are pre-incubated at 37° C. prior to the addition of NADPH (final concentration 1 mM) to initiate the reaction. The final incubation volume is 50 μL. A control incubation is included for each compound tested where 0.1 M phosphate buffer pH 7.4 is added instead of NADPH (minus NADPH). Two control compounds are included with each species. All incubations are performed singularly for each test compound.
# (§4) Compounds are incubated for 0, 5, 15, 30 and 45 min. The control (minus NADPH) is incubated for 45 min only. […] Following protein precipitation, the sample supernatants are combined in cassettes of up to 4 compounds, internal standard is added and samples analysed by LC-MS/MS. From a plot of ln peak area ratio (compound peak area/internal standard peak area) against time, the gradient of the line is determined. Subsequently, half-life and intrinsic clearance are calculated
# [2] = Liver microsomal stability, rat; assay type: in vitro ADME, Sprague Dawley rats; details: male, Sprague Dawley, pooled liver microsomes, pH 7.4, 0.5 mg/mL protein, read-out: Liver Microsomal Stability (T1/2/mins) rat
# Description: as §1, §2, §3, §4
# T1 sequence (P03420 137-574): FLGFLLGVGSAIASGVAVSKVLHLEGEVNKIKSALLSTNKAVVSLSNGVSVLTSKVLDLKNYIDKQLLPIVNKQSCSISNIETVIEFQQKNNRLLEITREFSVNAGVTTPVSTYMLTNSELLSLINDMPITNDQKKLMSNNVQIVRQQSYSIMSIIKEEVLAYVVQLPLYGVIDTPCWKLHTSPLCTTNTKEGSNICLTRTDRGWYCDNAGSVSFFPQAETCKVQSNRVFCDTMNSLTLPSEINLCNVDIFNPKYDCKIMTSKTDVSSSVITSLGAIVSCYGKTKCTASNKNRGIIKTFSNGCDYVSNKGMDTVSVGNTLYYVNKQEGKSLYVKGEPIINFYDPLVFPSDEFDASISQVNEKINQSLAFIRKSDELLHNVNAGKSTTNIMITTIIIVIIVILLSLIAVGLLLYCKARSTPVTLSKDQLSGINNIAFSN
# T1 sequence (P03420 26-109): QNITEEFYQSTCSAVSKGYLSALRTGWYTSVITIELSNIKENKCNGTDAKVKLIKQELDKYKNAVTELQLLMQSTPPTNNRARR
structure (smiles),measurement,setting,value
"NC1CCN(c2ncc(CN3C(=O)C4(CC4)c4ccc(F)cc43)c(N[C@H]3CC[C@H](O)CC3)n2)C1 (stereo partly drawn) [Compound 2, 1′-((2-(3-Aminopyrrolidin-1-yl)-4-(((1r,4r)-4-hydroxycyclohexyl)amino)pyrimidin-5-yl)methyl)-6′-fluorospiro[cyclopropane-1,3′-indolin]-2′-one]",IC50,RSV A2_F,0.237 µM
same,half-life at 3 μM,[1],2.82 h
same,half-life at 3 μM,[2],2.17 h
